Source: publication PMC9579194, “Selective macrocyclic peptide modulators of Lys63-linked ubiquitin chains disrupt DNA damage repair” (Nature Communications, 2022)
Several values for one entry are separate records, joined by “and”; a condition that tells them apart may be missing. Equal entries are not always repeated. Where two headings read alike, the source gives them in different places. One block for each molecule: values may come before it. *1 amine or outer side, *2 acyl side, *3 side chain or, on linkers, in order; H or OH if unused. Where a SMILES comes first, the peptide text is derived from it. Bridges are numbered along the chain shown (N, C = ends). The star is where a group is joined. Fluorescein(5-Mal) = O=C1OC2(c3ccc(O)cc3Oc3cc(O)ccc32)c2ccc(N3C(=O)CC(*)C3=O)cc21; X2 = CN(C)c1ccc2c(-c3ccc(N4C(=O)CC(*)C4=O)cc3C(=O)[O-])c3ccc(=[N+](C)C)cc-3oc2c1; X1 = O=C(c1cccc(C[*:2])c1)[*:1]; X3 = Fc1c(F)c(F)c(*)c(F)c1F

Columns and labels:
Lys63 linked Di-Ub = molecular target: T1, Lys63 linked Di-Ub (Homo sapiens, UniProt P0CG48); experiment: KD determination of fluorophore-labeled cyclic peptides, fluorescence-based assay; assay type: binding; conditions: for Kd: fluorophore-labeled peptide, Y = Bmax*X/(KD + X); for Reading-1 / Reading-2 / Reading-3: raw fluorescence, blank not subtracted, Experiments 1-3
T1 construct: made in house; host or cells: total chemical synthesis (Fmoc-SPPS, ligation, desulfurization)
Protocol: (ii) Determination of KD value of CP1-FITC
According to the described procedure in literature,3 the KD value of FITC-labeled cyclic peptide 1 (CP1- […]
Supplementary Fig. 25 The carve represents the binding of CP1-FITC to Lys63 linked Di-Ub. Using Y = […]
All measurements were performed in three independent experiments. Bars represent mean values. All source data are provided as a Source […]
(iii) Determination of KD value of CP1-TAMRA
The fluorescence values were measured (λex = 510 nm and λem = 565 nm) in a similar way as described for CP1-FITC. The dissociation constant (KD) value of TAMRA-labeled CP1 (CP1-TAMRA) was calculated as 101.9 ± 3.6 nM. All measurements were performed in triplicates.
Supplementary Fig. 26 The carve represents the binding of CP1-TAMRA to Lys63 linked Di-Ub. Using […]
performed in triplicates. All measurements were performed in three independent experiments. Bars represent mean values. All source data are provided as a Source data file. […]
(iv) Determination of KD value of 2-FITC, 29
The dissociation constant (KD) value of FITC-labeled cyclic peptide 29 was calculated as 43.2± 4 nM.
Supplementary Fig. 27 The carve represents the binding of 2-FITC to Lys63 linked Di-Ub. Using Y = […]
All measurements were performed in triplicates. All measurements were performed in three independent experiments. Bars represent mean values. All source data are provided as a Source data file .
(v) Determination of KD value of 2-TAMRA, 26
CP1-FITC. The dissociation constant (KD) value of TAMRA-labeled 26 (2-TAMRA) was calculated as 47.4 ± 5.9 nM. All measurements were performed in triplicates.
Supplementary Fig. 28 The carve represents the binding of 2-TAMRA to Lys63 linked Di-Ub. Using Y = […]
in triplicates. All measurements were performed in three independent experiments. Bars represent mean […]
(vi) Determination of KD value of FITC labeled cyclic peptide 27a for cyclic peptide 20 […]
Supplementary Fig. 29 The carve represents the binding of 27a to Lys63 linked Di-Ub. Using Y = […]
values. All source data are provided as a Source data file. […]

U2OS cells [1] = system: U2OS cells
Protocol: (§1) Cells were seeded for 24 h on Ibidi 8 well µ-slides treated with poly-L-lysine to reach ~90% confluency. Cells were then washed three times with warm PBS followed by incubation for 1 h with a warm serum-free medium (DMEM) containing peptides. Thereafter, cells were washed two times with warm PBS. Prior to imaging, cells were washed with an optical culture medium and stained with Hoechst (2 µg/ml). Live cell CLSM images were captured using Confocal Zeiss LSM 710 equipped with 40× NA 1.2 water immersion objective lens using a 1 AU pinhole settings. Different lasers were used for the different tags (Hoechst, TAMRA, FITC), and during analysis, the µ-slide was kept at 37 °C in a humidified chamber. Images were analyzed using ZEN 3.2 (blue edition).

cells = experiment: Cell membrane integrity analysis, SYTOX blue assay; assay type: cell-based; conditions: up to 2 μM of cyclic peptides
Protocol: To assess the cell toxicity due to the loss of membrane integrity within the concentration range used for efficient live-cell delivery of synthetic cyclic peptide molecules, we proceed similarly to the cell uptake experiment and stain the cells with SYTOX™ Blue (100 nM)[44]. SYTOX™ blue dead cell stain is a high-affinity nucleic acid stain that easily penetrates cells with compromised plasma membranes but will not cross uncompromised cell membranes. […] CLSM images were analyzed using ZEN 3.2 (blue edition).

U2OS cells [2] = experiment: Cell uptake study by confocal microscopy; conditions: live U2OS cells, 1 h, laser scanning confocal microscopy
Protocol: as §1

Kd (Lys63 linked Di-Ub): 43.2 ± 4 nM | cell-permeability / delivery to cells (U2OS cells [1]): did not observe an efficient delivery
Compound: CC[C@H](C)[C@@H]1NC(=O)[C@H](Cc2c[nH]c3ccccc23)NC(=O)[C@H]([C@@H](C)CC)NC(=O)[C@H](CC(C)C)NC(=O)[C@H](CS)NC(=O)c2cccc(c2)CSC[C@@H](C(=O)NCC(=O)N[C@@H](C)C(=O)N[C@@H](CSC2CC(=O)N(c3ccc4c(c3)C(=O)OC43c4ccc(O)cc4Oc4cc(O)ccc43)C2=O)C(N)=O)NC(=O)[C@H](CC(C)C)NC(=O)[C@H]([C@@H](C)CC)NC(=O)[C@H](Cc2ccc(O)cc2)NC(=O)[C@@H]2CCCN2C(=O)[C@H](CC(N)=O)NC(=O)[C@H](CCCCN)NC(=O)[C@H](CO)NC(=O)[C@H](CO)NC(=O)CNC1=O (stereo partly drawn) [2-FITC] (CLIWIGSSKNPYILCGAC(Fluorescein(5-Mal))-NH2; linker N-15 via X1)

Compound: CC[C@H](C)[C@@H]1NC(=O)[C@H](Cc2c[nH]c3ccccc23)NC(=O)[C@H]([C@@H](C)CC)NC(=O)[C@H](CC(C)C)NC(=O)[C@H](CS)NC(=O)c2cccc(c2)CSC[C@@H](C(=O)NCC(=O)N[C@@H](C)C(=O)N[C@@H](CSC2CC(=O)N(c3ccc(-c4c5ccc(=[N+](C)C)cc-5oc5cc(N(C)C)ccc45)c(C(=O)[O-])c3)C2=O)C(N)=O)NC(=O)[C@H](CC(C)C)NC(=O)[C@H]([C@@H](C)CC)NC(=O)[C@H](Cc2ccc(O)cc2)NC(=O)[C@@H]2CCCN2C(=O)[C@H](CC(N)=O)NC(=O)[C@H](CCCCN)NC(=O)[C@H](CO)NC(=O)[C@H](CO)NC(=O)CNC1=O (stereo partly drawn) [2-TAMRA] (CLIWIGSSKNPYILCGAC(X2)-NH2; linker N-15 via X1)
Kd (Lys63 linked Di-Ub): 47.4 ± 5.9 nM | SYTOX signal (cell membrane integrity) (cells): did not detect SYTOX signal | cell-permeability / delivery to cells (U2OS cells [2]): efficient cell-permeability

Kd (Lys63 linked Di-Ub): 285 ± 11.9 nM
Compound: CC[C@H](C)[C@@H]1NC(=O)[C@H](Cc2c[nH]c3ccccc23)NC(=O)[C@H]([C@@H](C)CC)NC(=O)[C@H](CC(C)C)NC(=O)[C@H](CSc2c(F)c(F)c(F)c(F)c2F)NC(=O)c2cccc(c2)CSC[C@@H](C(=O)NCC(=O)N[C@@H](C)C(=O)N[C@@H](CSC2CC(=O)N(c3ccc4c(c3)C(=O)OC43c4ccc(O)cc4Oc4cc(O)ccc43)C2=O)C(N)=O)NC(=O)[C@H](CC(C)C)NC(=O)[C@H]([C@@H](C)CC)NC(=O)[C@H](Cc2ccc(O)cc2)NC(=O)[C@@H]2CCCN2C(=O)[C@H](CC(N)=O)NC(=O)[C@H](CCCCN)NC(=O)[C@H](CO)NC(=O)[C@H](CO)NC(=O)CNC1=O (stereo partly drawn) [27a] (C(X3)LIWIGSSKNPYILCGAC(Fluorescein(5-Mal))-NH2; linker N-15 via X1)

Reading-1 (Lys63 linked Di-Ub; conc. 10 nM): 1192 and 1298 and 1136 | Reading-2 (Lys63 linked Di-Ub; conc. 10 nM): 1174 and 1279 and 1151 | Reading-3 (Lys63 linked Di-Ub; conc. 10 nM): 1201 and 1288 and 1189 | Reading-1 (Lys63 linked Di-Ub; conc. 20 nM): 1625 and 1719 and 1573 | Reading-2 (Lys63 linked Di-Ub; conc. 20 nM): 1643 and 1748 and 1595 | Reading-3 (Lys63 linked Di-Ub; conc. 20 nM): 1657 and 1774 and 1588 | Reading-1 (Lys63 linked Di-Ub; conc. 40 nM): 2317 and 2485 and 2207 | Reading-2 (Lys63 linked Di-Ub; conc. 40 nM): 2298 and 2498 and 2217 | Reading-3 (Lys63 linked Di-Ub; conc. 40 nM): 2354 and 2474 and 2221 | Reading-1 (Lys63 linked Di-Ub; conc. 50 nM): 2713 and 2954 and 2674 | Reading-2 (Lys63 linked Di-Ub; conc. 50 nM): 2756 and 2925 and 2696 | Reading-3 (Lys63 linked Di-Ub; conc. 50 nM): 2732 and 2851 and 2602 | Reading-1 (Lys63 linked Di-Ub; conc. 100 nM): 3252 and 3463 and 3183 | Reading-2 (Lys63 linked Di-Ub; conc. 100 nM): 3236 and 3622 and 3192 | Reading-3 (Lys63 linked Di-Ub; conc. 100 nM): 3249 and 3477 and 3196 | Reading-1 (Lys63 linked Di-Ub; conc. 150 nM): 3598 and 3825 and 3755 | Reading-2 (Lys63 linked Di-Ub; conc. 150 nM): 3624 and 3817 and 3779 | Reading-3 (Lys63 linked Di-Ub; conc. 150 nM): 3602 and 3844 and 3784 | Reading-1 (Lys63 linked Di-Ub; conc. 200 nM): 4108 and 4275 and 4422 | Reading-2 (Lys63 linked Di-Ub; conc. 200 nM): 4147 and 4231 and 4454 | Reading-3 (Lys63 linked Di-Ub; conc. 200 nM): 4171 and 4244 and 4397 | Reading-1 (Lys63 linked Di-Ub; conc. 250 nM): 4518 and 4629 and 4716 | Reading-2 (Lys63 linked Di-Ub; conc. 250 nM): 4536 and 4677 and 4749 | Reading-3 (Lys63 linked Di-Ub; conc. 250 nM): 4549 and 4687 and 4765 | Reading-1 (Lys63 linked Di-Ub; conc. 300 nM): 4808 and 4979 and 5034 | Reading-2 (Lys63 linked Di-Ub; conc. 300 nM): 4853 and 4995 and 5045 | Reading-3 (Lys63 linked Di-Ub; conc. 300 nM): 4869 and 4968 and 5076
Compound: CC[C@H](C)[C@@H]1NC(=O)[C@H](Cc2c[nH]c3ccccc23)NC(=O)[C@H]([C@@H](C)CC)NC(=O)[C@H](CC(C)C)NC(=O)[C@H](CC(C)C)NC(=O)c2cccc(c2)CSC[C@@H](C(=O)NCC(=O)N[C@@H](C)C(=O)N[C@@H](CSC2CC(=O)N(c3ccc4c(c3)C(=O)OC43c4ccc(O)cc4Oc4cc(O)ccc43)C2=O)C(N)=O)NC(=O)[C@H](CC(C)C)NC(=O)[C@H]([C@@H](C)CC)NC(=O)[C@H](Cc2ccc(O)cc2)NC(=O)[C@@H]2CCCN2C(=O)[C@H](CC(N)=O)NC(=O)[C@H](CCCCN)NC(=O)[C@H](CO)NC(=O)[C@H](CO)NC(=O)CNC1=O (stereo partly drawn) [CP1-FITC] (LLIWIGSSKNPYILCGAC(Fluorescein(5-Mal))-NH2; linker N-15 via X1)
